Experiments:
[1] = logD by shake flask method (octanol / PBS pH 7.4, HPLC); type: physicochemical; details: octanol / PBS pH 7.4, shake flask
Procedure, shortened: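 LogD obtained by HPLC measurement of how the compound distributes between PBS (pH 7.4) and octanol in a shake-flask experiment.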

[2] = molecular target: T1, recombinant human transglutaminase 2 (Homo sapiens, UniProt P21980); assay: Transglutaminase assay (DCC-assay): incorporation of dansylcadaverine into dimethylcasein; type: biochemical; details: recombinant human TG2 10 nM; dansylcadaverine incorporation into dimethylcasein; read-out: IC50 TG2
T1 construct: purchased Zedira T022
T1 sequence (P21980 1-687): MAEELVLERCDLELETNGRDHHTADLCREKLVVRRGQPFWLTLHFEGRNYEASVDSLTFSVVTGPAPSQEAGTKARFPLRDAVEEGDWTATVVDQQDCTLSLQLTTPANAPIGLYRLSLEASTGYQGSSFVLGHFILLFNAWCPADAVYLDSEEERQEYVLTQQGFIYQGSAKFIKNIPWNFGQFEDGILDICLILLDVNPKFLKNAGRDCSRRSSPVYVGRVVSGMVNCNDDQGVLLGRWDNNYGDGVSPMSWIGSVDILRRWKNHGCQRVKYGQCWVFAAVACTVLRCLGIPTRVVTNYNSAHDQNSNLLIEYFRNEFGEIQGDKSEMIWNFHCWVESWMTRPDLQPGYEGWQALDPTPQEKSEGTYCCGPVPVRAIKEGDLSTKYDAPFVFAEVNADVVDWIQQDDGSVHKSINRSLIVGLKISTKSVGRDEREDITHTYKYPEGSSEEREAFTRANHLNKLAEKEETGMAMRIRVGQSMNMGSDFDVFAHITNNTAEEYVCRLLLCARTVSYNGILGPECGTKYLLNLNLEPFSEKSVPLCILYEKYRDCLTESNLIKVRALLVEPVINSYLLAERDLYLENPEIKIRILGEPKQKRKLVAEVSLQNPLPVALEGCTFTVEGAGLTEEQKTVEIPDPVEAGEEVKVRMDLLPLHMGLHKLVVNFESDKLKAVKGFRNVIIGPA
Procedure, shortened: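 IC50 is the inhibitor level that blocks 50% of initial activity. Activity is the fluorescence slope (λex 330, λem 500 nm) between 20 and 30 min of a 37 °C run, relative to a 2% DMSO control. The enzyme is recombinant human tissue transglutaminase, 10 nM final, tested against a 1:2 inhibitor dilution series in a pH 8.0 mix with 10 mM CaCl2, 10 mM glutathione, 16.7 µM dansylcadaverine and 4 µM N,N-dimethylcasein.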

[3] = Caco-2 permeability assay (CacoReady kit); type: in vitro ADME; details: human, Caco-2, Caco-2 barrier, CacoReady kit; above 1×10^−6 cm/s classified as permeable
Procedure, shortened: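 Compounds are tested on pre-formed Caco-2 barriers supplied as a ready-to-use kit, following the kit protocol, and the Papp value is derived to estimate intestinal absorption.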

Row | Structure (SMILES) | logD [1] | IC50 [2] | Papp [3]
1 | CCC12CC3CC(C1)C(NC(=O)Cn1cccc(NC(=O)[C@H](CCC(=O)C(=O)NC)NC(=O)c4ccc5cnccc5n4)c1=O)C(C3)C2 (stereo partly drawn) [II-187, (S)-N1-(1-(2-(5-ethyladamantane-2-amino)-2-oxoethyl)-2-oxo-1,2-dihydropyridin-3-yl)-N6-methyl-2-(1,6-naphthyridine-2-carboxamido)-5-oxohexanediamide] | 3 to 5 | 400 to 2500 nM | 1 to 10 ×10⁻⁶ cm/s
2 | CNC(=O)C(=O)CC[C@H](NC(=O)c1nccc2cnccc12)C(=O)Nc1cccn(CC(=O)NC23CCC(C2)C3)c1=O [II-188, (S)-N1-(1-(2-(bicyclo[2.1.1]hexan-1-ylamino)-2-oxoethyl)-2-oxo-1,2-dihydropyridin-3-yl)-N6-methyl-2-(2,6-naphthyridine-1-carboxamido)-5-oxohexanediamide] | < 1 | 400 to 2500 nM | < 1 ×10⁻⁶ cm/s
3 | CNC(=O)C(=O)CC[C@H](NC(=O)c1nonc1N)C(=O)Nc1cccn(CC(=O)NC23CC(C2)C3)c1=O [II-189, (S)-2-(4-amino-1,2,5-oxadiazole-3-carboxamido)-N1-(1-(2-(bicyclo[1.1.1]pentan-1-ylamino)-2-oxoethyl)-2-oxo-1,2-dihydropyridin-3-yl)-N6-methyl-5-oxohexanediamide] | < 1 | 400 to 2500 nM | < 1 ×10⁻⁶ cm/s
4 | CNC(=O)C(=O)CC[C@H](NC(=O)c1cc2ccc(N(C)C)cc2o1)C(=O)Nc1cccn(CC(=O)NC23CC(C2)C3)c1=O [II-190, (S)-N1-(1-(2-(bicyclo[1.1.1]pentan-1-ylamino)-2-oxoethyl)-2-oxo-1,2-dihydropyridin-3-yl)-2-(6-(dimethylamino)benzofuran-2-carboxamido)-N6-methyl-5-oxohexanediamide] | < 1 | 400 to 2500 nM | < 1 ×10⁻⁶ cm/s
5 | CNC(=O)C(=O)CC[C@H](NC(=O)c1cnc(NC(C)=O)s1)C(=O)Nc1cccn(CC(=O)NC23CC(C2)C3)c1=O [II-191, (S)-2-(2-acetamidothiazole-5-carboxamido)-N1-(1-(2-(bicyclo[1.1.1]pentan-1-ylamino)-2-oxoethyl)-2-oxo-1,2-dihydropyridin-3-yl)-N6-methyl-5-oxohexanediamide] | < 1 | 400 to 2500 nM | < 1 ×10⁻⁶ cm/s
6 | CNC(=O)C(=O)CC[C@H](NC(=O)c1c[nH]c(C(N)=O)c1)C(=O)Nc1cccn(CC(=O)NC23CC(C2)C3)c1=O [II-192, (S)-N4-(1-(1-(2-(bicyclo[1.1.1]pentan-1-ylamino)-2-oxoethyl)-2-oxo-1,2-dihydropyridin-3-ylamino)-6-(methylamino)-1,5,6-trioxohexan-2-yl)-1H-pyrrole-2,4-dicarboxamide] | < 1 | 400 to 2500 nM | < 1 ×10⁻⁶ cm/s
7 | CNC(=O)C(=O)CC[C@H](NC(=O)c1coc(S(N)(=O)=O)c1)C(=O)Nc1cccn(CC(=O)NC2C3CC4CC2CC(NC(C)=O)(C4)C3)c1=O (stereo partly drawn) [II-193, (S)-N1-(1-(2-(1-acetylamino-4-aminoadamantane)-2-oxoethyl)-2-oxo-1,2-dihydropyridin-3-yl)-N6-methyl-5-oxo-2-(5-sulfamoylfuran-3-carboxamido)hexanediamide] | < 1 | 400 to 2500 nM | < 1 ×10⁻⁶ cm/s
8 | CNC(=O)C(=O)CC[C@H](NC(=O)c1ccc2occc2c1)C(=O)Nc1cccn(CC(=O)NC2C3CC4CC2CC(NC(C)=O)(C4)C3)c1=O (stereo partly drawn) [II-194, (S)-2-(benzofuran-5-carboxamido)-N1-(1-(2-(1-acetylamino-4-aminoadamantane)-2-oxoethyl)-2-oxo-1,2-dihydropyridin-3-yl)-N6-methyl-5-oxohexanediamide] | < 1 | 40 to 400 nM | < 1 ×10⁻⁶ cm/s
9 | CNC(=O)C(=O)CC[C@H](NC(=O)c1ccc2ccoc2c1)C(=O)Nc1cccn(CC(=O)NC2C3CC4CC2CC(C(N)=O)(C4)C3)c1=O (stereo partly drawn) [II-195, (S)-2-(benzofuran-6-carboxamido)-N1-(1-(2-(4-aminoadamantane-1-carboxamide)-2-oxoethyl)-2-oxo-1,2-dihydropyridin-3-yl)-N6-methyl-5-oxohexanediamide] | < 1 | 40 to 400 nM | < 1 ×10⁻⁶ cm/s
10 | CNC(=O)C(=O)CC[C@H](NC(=O)c1nc(C2(C)CC2)no1)C(=O)Nc1cccn(CC(=O)NC2C3CC4CC2CC(C(N)=O)(C4)C3)c1=O (stereo partly drawn) [II-196, (S)-N1-(1-(2-(4-aminoadamantane-1-carboxamide)-2-oxoethyl)-2-oxo-1,2-dihydropyridin-3-yl)-N6-methyl-2-(3-(1-methylcyclopropyl)-1,2,4-oxadiazole-5-carboxamido)-5-oxohexanediamide] | < 1 | 400 to 2500 nM | < 1 ×10⁻⁶ cm/s
11 | CNC(=O)C(=O)CC[C@H](NC(=O)c1noc(C)n1)C(=O)Nc1cccn(CC(=O)NC23CC(C2)C3)c1=O [II-197, (S)-N1-(1-(2-(bicyclo[1.1.1]pentan-1-ylamino)-2-oxoethyl)-2-oxo-1,2-dihydropyridin-3-yl)-N6-methyl-2-(5-methyl-1,2,4-oxadiazole-3-carboxamido)-5-oxohexanediamide] | < 1 | 400 to 2500 nM | < 1 ×10⁻⁶ cm/s
12 | CNC(=O)C(=O)CC[C@H](NC(=O)c1csnn1)C(=O)Nc1cccn(CC(=O)NC23CC(C2)C3)c1=O [II-198, (S)-N1-(1-(2-(bicyclo[1.1.1]pentan-1-ylamino)-2-oxoethyl)-2-oxo-1,2-dihydropyridin-3-yl)-N6-methyl-5-oxo-2-(1,2,3-thiadiazole-4-carboxamido)hexanediamide] | < 1 | 40 to 400 nM | < 1 ×10⁻⁶ cm/s

Second part, the molecule after the results:

Row | logD [1] | IC50 [2] | Papp [3] | Structure (SMILES)
13 | < 1 | 40 to 400 nM | < 1 ×10⁻⁶ cm/s | CNC(=O)C(=O)CC[C@H](NC(=O)c1ncns1)C(=O)Nc1cccn(CC(=O)NC23CC(C2)C3)c1=O [II-199, (S)-N1-(1-(2-(bicyclo[1.1.1]pentan-1-ylamino)-2-oxoethyl)-2-oxo-1,2-dihydropyridin-3-yl)-N6-methyl-5-oxo-2-(1,2,4-thiadiazole-5-carboxamido)hexanediamide]
14 | < 1 | 40 to 400 nM | < 1 ×10⁻⁶ cm/s | CNC(=O)C(=O)CC[C@H](NC(=O)c1nncs1)C(=O)Nc1cccn(CC(=O)NC23CC(C2)C3)c1=O [II-200, (S)-N1-(1-(2-(bicyclo[1.1.1]pentan-1-ylamino)-2-oxoethyl)-2-oxo-1,2-dihydropyridin-3-yl)-N6-methyl-5-oxo-2-(1,3,4-thiadiazole-2-carboxamido)hexanediamide]
15 | < 1 | 40 to 400 nM | < 1 ×10⁻⁶ cm/s | CNC(=O)C(=O)CC[C@H](NC(=O)c1snnc1C1CC1)C(=O)Nc1cccn(CC(=O)NC23CC(C2)C3)c1=O [II-201, (S)-N1-(1-(2-(bicyclo[1.1.1]pentan-1-ylamino)-2-oxoethyl)-2-oxo-1,2-dihydropyridin-3-yl)-2-(4-cyclopropyl-1,2,3-thiadiazole-5-carboxamido)-N6-methyl-5-oxohexanediamide]
16 | < 1 | 40 to 400 nM | < 1 ×10⁻⁶ cm/s | CNC(=O)C(=O)CC[C@H](NC(=O)c1snnc1C1CC1)C(=O)Nc1cccn(CC(=O)NC2C3CC4CC(C3)CC2C4)c1=O (stereo partly drawn) [II-202, (S)-2-(4-cyclopropyl-1,2,3-thiadiazole-5-carboxamido)-N1-(1-(2-(2-adamantylamino)-2-oxoethyl)-2-oxo-1,2-dihydropyridin-3-yl)-N6-methyl-5-oxohexanediamide]
17 | 1 to 3 | 40 to 400 nM | < 1 ×10⁻⁶ cm/s | CNC(=O)C(=O)CC[C@H](NC(=O)c1snnc1C(C)C)C(=O)Nc1cccn(CC(=O)NC2C3CC4CC(C3)CC2C4)c1=O (stereo partly drawn) [II-203, (S)-2-(4-isopropyl-1,2,3-thiadiazole-5-carboxamido)-N1-(1-(2-(2-adamantylamino)-2-oxoethyl)-2-oxo-1,2-dihydropyridin-3-yl)-N6-methyl-5-oxohexanediamide]
18 | 1 to 3 | 40 to 400 nM | < 1 ×10⁻⁶ cm/s | CCc1nnsc1C(=O)N[C@@H](CCC(=O)C(=O)NC)C(=O)Nc1cccn(CC(=O)NC2C3CC4CC(C3)CC2C4)c1=O (stereo partly drawn) [II-204, (S)-2-(4-ethyl-1,2,3-thiadiazole-5-carboxamido)-N1-(1-(2-(2-adamantylamino)-2-oxoethyl)-2-oxo-1,2-dihydropyridin-3-yl)-N6-methyl-5-oxohexanediamide]
